#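 Step 1: Grow cells in 96-well plates. Step 2: Expose to compound for 48 hours at 5 concentrations. Step 3: Interpolate endpoints linearly; if unreached, use highest concentration. At the GI50, growth is halved. Definition used: TGI = concentration required for complete inhibition of growth.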
# Legend:
# Assay in all cases: NCI tumour cell line growth inhibition, 48 h
# UACC-257 melanoma = test system: UACC-257 melanoma
# SR leukemia = test system: SR leukemia
# TK-10 renal = test system: TK-10 renal
# OVCAR-8 ovarian = test system: OVCAR-8 ovarian
# HCT-15 colon = test system: HCT-15 colon
# UACC-62 melanoma = test system: UACC-62 melanoma
# A498 renal = test system: A498 renal
# EKVX NSCLC = test system: EKVX NSCLC
# NCI-H460 lung = test system: NCI-H460 lung
# OVCAR-3 ovarian = test system: OVCAR-3 ovarian
Structure (SMILES),GI50 (UACC-257 melanoma),TGI (UACC-257 melanoma),GI50 (SR leukemia),TGI (SR leukemia),GI50 (TK-10 renal),TGI (TK-10 renal),GI50 (OVCAR-8 ovarian),TGI (OVCAR-8 ovarian),GI50 (HCT-15 colon),TGI (HCT-15 colon),GI50 (UACC-62 melanoma),TGI (UACC-62 melanoma),GI50 (A498 renal),TGI (A498 renal),GI50 (EKVX NSCLC),TGI (EKVX NSCLC),GI50 (NCI-H460 lung),TGI (NCI-H460 lung),GI50 (OVCAR-3 ovarian),TGI (OVCAR-3 ovarian)
Cn1ncc(C#N)c1-c1ccc2c(c1)CN([C@H](CN)Cc1cccc(F)c1)C2=O,5.99 µM,66.6 µM,17.2 µM,50.7 µM,0.787 µM,24 µM,47.7 µM,> 100 µM,15.9 µM,> 100 µM,3.17 µM,22.6 µM,0.157 µM,1.39 µM,5.63 µM,> 92.1 µM,0.752 µM,> 100 µM,10 µM,> 90.4 µM
O=S(=O)(NC1=NCCN1C(=S)SN1CCn2c1nsc2=S)c1ccc(Oc2ccccc2)cc1,> 100 µM,> 100 µM,3.7 µM,45.8 µM,64.4 µM,> 100 µM,> 100 µM,> 100 µM,72.1 µM,> 100 µM,39.3 µM,> 100 µM,34.2 µM,97 µM,> 100 µM,> 100 µM,51.2 µM,> 100 µM,> 100 µM,> 100 µM
NC(=O)c1c(NC(=O)c2cccs2)sc2c1CCC(=O)C2,2.73 µM,7.08 µM,1.43 µM,> 100 µM,6.33 µM,> 100 µM,3.02 µM,> 100 µM,1.65 µM,17.9 µM,0.811 µM,4.43 µM,6 µM,52.9 µM,2.54 µM,87.1 µM,2.98 µM,> 100 µM,1.8 µM,5.93 µM
CC[C@@H](C)/C=C(C)/C=C/C(=O)c1c(O)c(-c2ccc(OC(=O)[C@@]34CC[C@@](C)(C(=O)O3)C4(C)C)cc2)cn(O)c1=O,1.8 µM,36 µM,1.32 µM,7.4 µM,1.99 µM,> 50 µM,1.76 µM,> 50 µM,1.17 µM,> 50 µM,1.16 µM,2.7 µM,5.6 µM,> 50 µM,2.81 µM,> 50 µM,1.28 µM,7.56 µM,1.04 µM,> 50 µM
CC(=O)OC1CCC2OOC1O2 (stereo not given),–,> 100 µM,–,> 100 µM,–,> 100 µM,–,> 100 µM,–,> 100 µM,–,> 100 µM,–,> 100 µM,–,> 100 µM,–,> 100 µM,–,> 100 µM
CN(c1ccccc1)c1cc2ccccc2nn1,–,> 100 µM,–,> 100 µM,–,> 100 µM,–,> 100 µM,–,> 100 µM,–,> 100 µM,–,> 100 µM,–,> 100 µM,–,> 100 µM,–,> 100 µM
C/C(=N\NC(=O)c1ccncc1)c1sc(-n2nc(-c3ccccc3)cc2-c2ccccc2)nc1C,–,> 31.6 µM,–,> 31.6 µM,–,> 31.6 µM,–,> 100 µM,–,> 31.6 µM,–,> 31.6 µM,–,> 100 µM,–,> 100 µM,–,> 31.6 µM,–,> 31.6 µM

# From PubChem BioAssay (NCI)
